Test results published in PubChem BioAssay AID2060907 (Molecular Pharmacology Branch, DTP, NCI, 2025).
Each block holds one compound with its values, some of them ahead of it.

Tested on: 388556-164-R-J1-PDC complex spheroid viability
Experiment: Anticancer human tumor 388556-164-R-J1-PDC patient-derived colon adenocarcinoma cell line growth inhibition [RAS]
Conditions: for IC50: curve of first compound; for viability, T/C: stronger effect = lower value
In short: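 Agents were tested in combination matrices in half-log decrements from a top concentration at or near clinical Cmax (10 microM if undetermined). Targets were multi-cell spheroids of tumour lines plus HUVEC and MSC stromal cells.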

[1] = second compound 0.000949 µM, first compound 0.0316 µM
[2] = second compound 0.000949 µM, first compound 0.1 µM
[3] = second compound 0.000949 µM, first compound 0.316 µM
[4] = second compound 0.000949 µM, first compound 1 µM
[5] = second compound 0.000949 µM, first compound 3.16 µM
[6] = second compound 0.000949 µM, first compound 10 µM
[7] = second compound 0.003 µM, first compound 0.0316 µM
[8] = second compound 0.003 µM, first compound 0.1 µM
[9] = second compound 0.003 µM, first compound 0.316 µM
[10] = second compound 0.003 µM, first compound 1 µM
[11] = second compound 0.003 µM, first compound 3.16 µM
[12] = second compound 0.003 µM, first compound 10 µM
[13] = second compound 0.00949 µM, first compound 0.0316 µM
[14] = second compound 0.00949 µM, first compound 0.1 µM
[15] = second compound 0.00949 µM, first compound 0.316 µM
[16] = second compound 0.00949 µM, first compound 1 µM
[17] = second compound 0.00949 µM, first compound 3.16 µM
[18] = second compound 0.00949 µM, first compound 10 µM
[19] = second compound 0.03 µM, first compound 0.0316 µM
[20] = second compound 0.03 µM, first compound 0.1 µM
[21] = second compound 0.03 µM, first compound 0.316 µM
[22] = second compound 0.03 µM, first compound 1 µM
[23] = second compound 0.03 µM, first compound 3.16 µM
[24] = second compound 0.03 µM, first compound 10 µM
[25] = second compound 0.0949 µM, first compound 0.0316 µM
[26] = second compound 0.0949 µM, first compound 0.1 µM
[27] = second compound 0.0949 µM, first compound 0.316 µM
[28] = second compound 0.0949 µM, first compound 1 µM
[29] = second compound 0.0949 µM, first compound 3.16 µM
[30] = second compound 0.0949 µM, first compound 10 µM
[31] = second compound 0.3 µM, first compound 0.0316 µM
[32] = second compound 0.3 µM, first compound 0.1 µM
[33] = second compound 0.3 µM, first compound 0.316 µM
[34] = second compound 0.3 µM, first compound 1 µM
[35] = second compound 0.3 µM, first compound 3.16 µM
[36] = second compound 0.3 µM, first compound 10 µM
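Also: spheroids exposed to compound for 7 days before readout.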
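For viability, T/C in this document: 100% = DMSO vehicle control luminescence.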

IC50 (second compound 0.000949 µM): 1850 nM | IC50 (second compound 0.003 µM): 1810 nM | IC50 (second compound 0.00949 µM): 1420 nM | IC50 (second compound 0.03 µM): 1050 nM | IC50 (second compound 0.0949 µM): < 31.6 nM | IC50 (second compound 0.3 µM): < 31.6 nM
SMILES: CCC(CC)c1cc(NC2CCC(N)C2)n2nccc2n1 (centres undefined) + CCn1c(-c2cc(N3CCN(C)CC3)cnc2C(C)OC)c2c3cc(ccc31)-c1csc(n1)CC(NC(=O)C1CC1C)C(=O)N1CCCC(N1)C(=O)OCC(C)(C)C2
viability, T/C [1]: 84.5% | viability, T/C [2]: 104% | viability, T/C [3]: 93.3% | viability, T/C [4]: 90.6% | viability, T/C [5]: 14.7% | viability, T/C [6]: 10.2% | viability, T/C [7]: 89.6% | viability, T/C [8]: 85.2% | viability, T/C [9]: 79.3% | viability, T/C [10]: 81.1% | viability, T/C [11]: 20.5% | viability, T/C [12]: 9.94% | viability, T/C [13]: 82.7% | viability, T/C [14]: 77.2% | viability, T/C [15]: 73.7% | viability, T/C [16]: 65.1% | viability, T/C [17]: 15.4% | viability, T/C [18]: 11.8% | viability, T/C [19]: 56.5% | viability, T/C [20]: 66.5% | viability, T/C [21]: 57.9% | viability, T/C [22]: 51.7% | viability, T/C [23]: 10% | viability, T/C [24]: 11.5% | viability, T/C [25]: 40.5% | viability, T/C [26]: 47% | viability, T/C [27]: 47% | viability, T/C [28]: 38.4% | viability, T/C [29]: 9.16% | viability, T/C [30]: 11.8% | viability, T/C [31]: 28.7% | viability, T/C [32]: 32.5% | viability, T/C [33]: 32.4% | viability, T/C [34]: 27.8% | viability, T/C [35]: 5.58% | viability, T/C [36]: 11%

IC50 (second compound 0.000949 µM): > 10000 nM | IC50 (second compound 0.003 µM): > 10000 nM | IC50 (second compound 0.00949 µM): > 10000 nM | IC50 (second compound 0.03 µM): 5630 nM | IC50 (second compound 0.0949 µM): < 31.6 nM | IC50 (second compound 0.3 µM): < 31.6 nM
SMILES: CC(C)NCC(C(=O)N1CCN(c2ncnc3c2C(C)CC3O)CC1)c1ccc(Cl)cc1 (centres undefined) + CCn1c(-c2cc(N3CCN(C)CC3)cnc2C(C)OC)c2c3cc(ccc31)-c1csc(n1)CC(NC(=O)C1CC1C)C(=O)N1CCCC(N1)C(=O)OCC(C)(C)C2
viability, T/C [1]: 105% | viability, T/C [2]: 107% | viability, T/C [3]: 96.4% | viability, T/C [4]: 91.2% | viability, T/C [5]: 95% | viability, T/C [6]: 103% | viability, T/C [7]: 102% | viability, T/C [8]: 96.5% | viability, T/C [9]: 95.4% | viability, T/C [10]: 82% | viability, T/C [11]: 84.9% | viability, T/C [12]: 88% | viability, T/C [13]: 86% | viability, T/C [14]: 80% | viability, T/C [15]: 69.4% | viability, T/C [16]: 73.9% | viability, T/C [17]: 84.8% | viability, T/C [18]: 58.8% | viability, T/C [19]: 58.2% | viability, T/C [20]: 65.7% | viability, T/C [21]: 57.1% | viability, T/C [22]: 56% | viability, T/C [23]: 51.9% | viability, T/C [24]: 47.8% | viability, T/C [25]: 45.7% | viability, T/C [26]: 46.5% | viability, T/C [27]: 38.9% | viability, T/C [28]: 36.3% | viability, T/C [29]: 40.9% | viability, T/C [30]: 33% | viability, T/C [31]: 31.9% | viability, T/C [32]: 31.5% | viability, T/C [33]: 30.5% | viability, T/C [34]: 28.1% | viability, T/C [35]: 24.4% | viability, T/C [36]: 22.8%
